16 compounds from patent publication US8017637B2, “Inhibitors of cdc phosphatases” (Ipsen Pharma S.A.S., priority 2004, dated 2011) can be followed below.

What is called melting point is the temperature, or range, at which the solid turns liquid.

For series [1], the system named is Mia-Paca2 lines (human pancreatic cancer cells). In words: Anti-proliferative activity, WST1 colorimetric test, Mia-Paca2 cells. The class given is cell-based. To be noted: MIA PaCa-2, 96 hours treatment, up to 10 μM, read-out: IC50 on the cell proliferation of the Mia-Paca2 lines. Here is the method: (§1) ii) Characterization of Anti-Proliferative Activity:
(§2) By way of example, the effect of a treatment by the compounds of the examples described previously on two lines of human Mia-Paca2 and DU145 cells will be studied. The cell lines DU145 (human prostate cancer cells) and Mia-PaCa2 (human pancreatic cancer cells) were acquired from the American Tissue Culture Collection (Rockville, Md., USA). The cells placed in 80 μl of Dulbecco's Modified Eagle medium (Gibco-Brl, Cergy-Pontoise, France) completed with 10% foetal calf serum inactivated by heating (Gibco-Brl, Cergy-Pontoise, France), 50,000 units/l of penicillin and 50 mg/l streptomycin (Gibco-Brl, Cergy-Pontoise, France), and 2 mM of glutamine (Gibco-Brl, Cergy-Pontoise, France) were seeded on a 96-well plate on day 0. The cells were treated on day 1 for 96 hours at increasing concentrations of each of the compounds to be tested up to 10 μM. At the end of the of this period, quantification of the cell proliferation is evaluated by a colorimetric test based on the cleavage of the tetrazolium salt WST1 by the mitochondrial dehydrogenases in the viable cells leading to the formation of formazan (Boehringer Mannheim, Meylan, France). These tests are carried out in duplicate with 8 determinations per concentration tested. For each compound to be tested, the values included in the linear part of the sigmoid were retained for linear regression analysis and used in order to estimate the inhibitory concentration IC50. The products are solubilized in dimethylsulphoxide (DMSO) at to 10^−2M and finally used in culture with 0.1% DMSO.
On the technique in general: Formazan colour is commonly taken as a measure of viable cells.

Series [2] has as its system DU-145 lines (human prostate cancer cells). Nature of the series: Anti-proliferative activity, WST1 colorimetric test, DU145 cells. In kind it is cell-based. The settings on record: 96 hours treatment, up to 10 μM, read-out: IC50 on the cell proliferation of the DU-145 lines. Here is the method:
as §1, §2

Series [3] addresses T1, purified recombinant enzyme Cdc25-C (MBP-Cdc25C) (Homo sapiens, UniProt P30307).
T1 construct: made in house
T1 sequence (P30307 1-473): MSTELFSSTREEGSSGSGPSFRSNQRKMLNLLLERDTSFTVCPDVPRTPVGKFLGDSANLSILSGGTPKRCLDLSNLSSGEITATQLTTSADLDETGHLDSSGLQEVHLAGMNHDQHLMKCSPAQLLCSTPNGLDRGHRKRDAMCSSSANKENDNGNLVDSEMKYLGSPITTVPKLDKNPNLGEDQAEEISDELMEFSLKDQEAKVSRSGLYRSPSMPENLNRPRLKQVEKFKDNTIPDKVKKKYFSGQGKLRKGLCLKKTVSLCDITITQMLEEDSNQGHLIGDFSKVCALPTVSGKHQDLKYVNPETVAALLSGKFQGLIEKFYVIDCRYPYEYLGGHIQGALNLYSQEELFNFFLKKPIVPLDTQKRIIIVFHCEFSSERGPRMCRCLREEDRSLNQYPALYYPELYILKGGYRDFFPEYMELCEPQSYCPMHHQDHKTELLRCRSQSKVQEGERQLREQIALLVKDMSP
Nature of the series: Measurement of the phosphatase activity of the purified recombinant enzyme Cdc25C (OMFP dephosphorylation, fluorescence). In kind it is biochemical. To be noted: OMFP 500 μM, 4 hours at 30° C. Here is the method:
i) Measurement of the Phosphatase Activity of the Purified Recombinant Enzyme Cdc25C
The phosphatase activity of the protein MBP-Cdc25C is evaluated by the dephosphorylation of 3-O-methylfluorescein-phosphate (OMFP) to 3-O-methylfluorescein (OMF) with a determination of the fluorescence at 475 nm of the reaction product. This test makes it possible to identify inhibitors of the recombinant enzyme cdc25. The preparation of the fusion protein MBP-Cdc25C is described in the Patent Application PCT WO 01/44467.
The reaction is carried out in 384-well plate format at a final volume of 50 μl. The protein MBP-Cdc25C (prepared as described above) is preserved in the following elution buffer: 20 mM Tris-HCl pH 7.4; 250 mM NaCl; 1 mM EDTA; 1 mM of dithiothreitol (DTT); 10 mM maltose. It is diluted to a concentration of 60 μM in the following reaction buffer: 50 mM Tris-HCl pH 8.2; 50 mM NaCl; 1 mM DTT; 20% glycerol. Measurement of the background noise is carried out with the buffer without the addition of the enzyme. The products are tested at decreasing concentrations starting from 40 μM. The reaction is initiated by the addition of an OMFP solution at 500 μM final (prepared extemporaneously from a 12.5 mM stock solution in 100% DMSO (Sigma #M2629)). After 4 hours at 30° C. in a single-use 384-well plate, the fluorescence measured at OD 475 nm is read using a Victor^2 plate reader (EGG-Wallac). The determination of the concentration inhibiting the enzyme reaction by 50% is calculated from three independent experiments. Only the values contained in the linear part of the sigmoid are retained for linear regression analysis.

Molecules are shown by their SMILES.

`Cc1nc2c(s1)C(=O)C=C(NCCCN(C)CCCNC1=CC(=O)c3sc(C)nc3C1=O)C2=O` [Example 1, 5.5′-[(methylimino)bis(propane-3,1-diylimino)]bis(2-methyl-1,3-benzothiazole-4,7-dione)]: the melting point was in the range of 94 to 96 °C. The IC50 in series [1] was no more than 10 µM. The IC50 in series [2] is no more than 10 µM. Besides, the IC50 in series [3] is no more than 1 µM.

Turning to `Cc1nc2c(s1)C(=O)C=C(NCCN(C)CCNC1=CC(=O)c3sc(C)nc3C1=O)C2=O` [Example 2, 5.5′-[(methylimino)bis(ethane-2,1-diylimino)]bis(2-methyl-1,3-benzothiazole-4,7-dione)], the melting point was in the range of 188 to 190 °C. Besides, in series [1], the IC50 is no more than 10 µM. For the same compound, the IC50 in series [2] is no more than 10 µM. Also, in series [3], the IC50 was no more than 1 µM.

On to `Cc1nc2c(s1)C(=O)C=C(NCCOCCNC1=CC(=O)c3sc(C)nc3C1=O)C2=O` [Example 3, 5.5′-[oxybis(ethane-2,1-diylimino)]bis(2-methyl-1,3-benzothiazole-4,7-dione)], for which the IC50 was no more than 10 µM in series [1], no more than 10 µM in series [2] and no more than 1 µM in series [3].

As for `Cc1nc2c(s1)C(=O)C=C(NCCCCCNC1=CC(=O)c3sc(C)nc3C1=O)C2=O` [Example 4], the IC50 in series [1] is no more than 10 µM; in series [2] it was no more than 10 µM; in series [3] it was no more than 1 µM.

`Cc1nc2c(s1)C(=O)C(NCCN(C)CCNC1=CC(=O)c3nc(C)sc3C1=O)=CC2=O` [Example 6, 6.6′-[(methylimino)bis(ethane-2,1-diylimino)]bis(2-methyl-1,3-benzothiazole-4,7-dione)]: the values for the IC50 in series [1], in series [2] and in series [3] were no more than 10 µM, no more than 10 µM and no more than 5 µM, respectively.

Consider `Cc1nc2c(s1)C(=O)C(Br)=C(NCCCN(C)CCCNC1=C(Br)C(=O)c3sc(C)nc3C1=O)C2=O` [Example 17, 5.5′-[(methylimino)bis(propane-3,1-diylimino)]bis(6-bromo-2-methyl-1,3-benzothiazole-4,7-dione)], for which the values for the IC50 in series [1], in series [2] and in series [3] were no more than 10 µM, no more than 10 µM and no more than 1 µM, respectively.

For the compound `CN(CCCN(C)C1=CC(=O)c2nc(-c3cc(F)ccc3F)oc2C1=O)CCCN(C)C1=CC(=O)c2nc(-c3cc(F)ccc3F)oc2C1=O` [Example 23, 6.6′-{(methylimino)bis[propane-3,1-diyl(methylimino)]}bis[2-(2,5-difluorophenyl)-1,3-benzoxazole-4,7-dione]], the IC50 in series [3] is no more than 5 µM.

In turn, `CN(CCCNC1=CC(=O)c2sc(C(=O)N3CCN(C(=O)N4CCOCC4)CC3)nc2C1=O)CCCNC1=CC(=O)c2sc(C(=O)N3CCN(C(=O)N4CCOCC4)CC3)nc2C1=O` [Example 27, 5.5′-[(methylimino)bis(propane-3,1-diylimino)]bis(2-{[4-(morpholin-4-ylcarbonyl)piperazin-1-yl]carbonyl}-1,3-benzothiazole-4,7-dione)] returned a melting point of 157 to 158 °C. In series [1], the IC50 is no more than 10 µM. Further, the IC50 in series [3] was no more than 1 µM.

In turn, `CN(CCCNC1=CC(=O)c2sc(C(=O)N3CCN(C(=O)C4CCCO4)CC3)nc2C1=O)CCCNC1=CC(=O)c2sc(C(=O)N3CCN(C(=O)C4CCCO4)CC3)nc2C1=O` (stereo not drawn) [Example 28, 5.5′-[(methylimino)bis(propane-3,1-diylimino)]bis(2-{[4-(tetrahydrofuran-2-ylcarbonyl)piperazin-1-yl]carbonyl}-1,3-benzothiazole-4,7-dione)] displayed a melting point of 152 to 153 °C. The IC50 in series [1] is no more than 10 µM. Besides, the IC50 in series [3] is no more than 1 µM.

In the case of `Cc1nc2c(s1)C(=O)C=C(NCCCN(C)CCCNC1=CC(=O)c3nc(C(=O)N4CCCC4)sc3C1=O)C2=O` [Example 44, 5-({3-[(3-{[4,7-dioxo-2-(pyrrolidin-1-ylcarbonyl)-4,7-dihydro-1,3-benzothiazol-6-yl]amino}propyl)(methyl)amino]propyl}amino)-2-methyl-1,3-benzothiazole-4,7-dione], the IC50 in series [1] was no more than 10 µM; in series [2], no more than 10 µM; in series [3], no more than 1 µM.

For the compound `COc1ccc(CNC(=O)c2nc3c(s2)C(=O)C=C(NCCCN(C)CCCNC2=CC(=O)c4sc(C)nc4C2=O)C3=O)cc1` [Example 45, N-(4-methoxybenzyl)-5-{[3-(methyl{3-[(2-methyl-4,7-dioxo-4,7-dihydro-1,3-benzothiazol-5-yl)amino]propyl}amino)propyl]amino}-4,7-dioxo-4,7-dihydro-1,3-benzothiazole-2-carboxamide], the IC50 in series [1] was no more than 10 µM; in series [2], no more than 10 µM; in series [3], no more than 1 µM.

Consider `COc1ccc2c(c1)CCCN2C(=O)c1nc2c(s1)C(=O)C=C(NCCCN(C)CCCNC1=CC(=O)c3sc(C)nc3C1=O)C2=O` [Example 47, 2-[(6-methoxy-3,4-dihydroquinolin-1(2H)-yl)carbonyl]-5-{[3-(methyl{3-[(2-methyl-4,7-dioxo-4,7-dihydro-1,3-benzothiazol-5-yl)amino]propyl}amino)propyl]amino}-1,3-benzothiazole-4,7-dione], for which the IC50 in series [3] was no more than 1 µM.

As to `COc1ccc(C(=O)N2CCN(C(=O)c3nc4c(s3)C(=O)C=C(NCCCN(C)CCCNC3=CC(=O)c5sc(C)nc5C3=O)C4=O)CC2)cc1` [Example 48, 2-{[4-(4-methoxybenzoyl)piperazin-1-yl]carbonyl}-5-{[3-(methyl{3-[(2-methyl-4,7-dioxo-4,7-dihydro-1,3-benzothiazol-5-yl)amino]propyl}amino)propyl]amino}-1,3-benzothiazole-4,7-dione], the IC50 in series [1] was no more than 10 µM; in series [2], no more than 10 µM; in series [3] it was no more than 1 µM.

With `Cc1nc2c(s1)C(=O)C=C(NCCCN(C)CCCNC1=CC(=O)c3scnc3C1=O)C2=O` [Example 50, 5-({3-[{3-[(4,7-dioxo-4,7-dihydro-1,3-benzothiazol-5-yl)amino]propyl}(methyl)amino]propyl}amino)-2-methyl-1,3-benzothiazole-4,7-dione], the IC50 in series [1] was no more than 10 µM; in series [2] it was no more than 10 µM; in series [3], no more than 1 µM.

As to `Cc1nc2c(s1)C(=O)C=C(NCCCN(C)CCCNC1=CC(=O)c3nc(-c4cc(F)ccc4F)oc3C1=O)C2=O` [Example 51, 2-(2,5-difluorophenyl)-6-{[3-(methyl{3-[(2-methyl-4,7-dioxo-4,7-dihydro-1,3-benzothiazol-5-yl)amino]propyl}amino)propyl]amino}-1,3-benzoxazole-4,7-dione], the results for the IC50 in series [1] and in series [3] were no more than 10 µM and no more than 1 µM, respectively.

Consider `Cc1nc2c(s1)C(=O)C(NCCCN(C)CCCNC1=CC(=O)c3nc(-c4cc(F)ccc4F)oc3C1=O)=CC2=O` [Example 53, 2-(2,5-difluorophenyl)-6-{[3-(methyl{3-[(2-methyl-4,7-dioxo-4,7-dihydro-1,3-benzothiazol-6-yl)amino]propyl}amino)propyl]amino}-1,3-benzoxazole-4,7-dione], for which the IC50 in series [1] is no more than 10 µM; in series [2], no more than 10 µM; in series [3], no more than 1 µM.
